According to patent publication US11236124B2, “Method and composition for hydrolyzing eggshell membrane” (EGGNOVO S.L., priority 2017, dated 2022):

B1: Papain: protease of plant origin with endopeptidase activity from the group of cysteine proteases (protein, UniProt P00784 134-345, looked up)
Papain: IPEYVDWRQKGAVTPVKNQGSCGSCWAFSAVVTIEGIIKIRTGNLNEYSEQELLDCDRRSYGCNGGYPWSALQLVAQYGIHYRNTYPYEGVQRYCRSREKGPYAAKTDGVRQVQPYNEGALLYSIANQPVSVVLEAAGKDFQLYRGGIFVGPCGNKVDHAVAAVGYGPNYILIKNSWGTGWGENGYIRIKRGTGNSYGVCGLYTSSFYPVKN

Experiments:
Assay type in all cases: biochemical
eggshell membrane [1] = assay: Testing of denaturing agents for eggshell membrane dissolution; conditions: denaturing agent used for eggshell membrane hydrolysis
eggshell membrane [2] = assay: Eggshell membrane solubilization with different enzymes and reducing agents (Example 1); conditions: 10 mg eggshell membrane/ml
Description: A solution for solubilizing eggshell membrane was prepared at a ratio of 10 mg of eggshell membrane/ml of solution. Said solution comprised a denaturing agent, and more specifically a denaturing agent having detergent properties and an amphiphilic nature such as SDS, at a concentration of 0.5-5%. The solution also comprised a reducing agent, for which solutions of the following reducing agents were prepared at a concentration of 100 mM-1 M: sodium sulfite (Na2SO3), sodium hydrosulfite (Na2S2O4), sodium hydroxymethanesulfinate (HOCH2SO2Na), sodium metabisulfite (Na2S2O5), and dithiothreitol (DTT); these solutions were tested successively. Finally, a suitable buffer was added for maintaining the pH depending on the enzyme that was going to be used, having a concentration of 25-50 mM. Once the pH was adjusted with a pH-meter to the optimum pH for each enzyme, the enzyme previously prepared according to the manufacturer's specification at a concentration of 1% was added to the solution, such that the final concentration of the enzyme with respect to the total solution was 0.05-0.5%. The same was performed with each of the enzymes used in the present example.
Once all the components were mixed and homogenized, said mixture was incubated at the maximum temperature of activity of each enzyme. The level of hydrolysis was assessed after 1, 12, and 24 hours of incubation and the results were compared against a control that is performed and only differs from the test solutions by the absence of enzyme.

eggshell membrane [3] = assay: Eggshell membrane solubilization with papain at different Na2S2O5 concentrations, with or without SDS (Example 2); conditions: 38° C., 12 h, 10 mg membrane/ml
Description: Specifically, a solution for solubilizing 10 mg of eggshell membrane/ml of solution was prepared. Said solution only contained 100 mM sodium metabisulfite (Na2S2O5) (1). Three other similar solutions were prepared with an increasing order of concentration of Na2S2O5, i.e., 5 mM (2), 50 mM (3), and 100 mM (4), but in this case they contained 0.5-5% SDS in 50 mM HEPES buffer adjusted to pH 6.2 with a pH-meter. It was verified that the optimum range of sodium metabisulfite (Na2S2O5) for the present invention is between 50 and 150 mM. Papain previously activated in a 0.15 M sodium chloride solution was added such that the final concentration of the enzyme in the mixture was 0.05-0.5%. Once all the components were mixed and homogenized, said mixture was incubated at 38° C. for 12 h. The level of hydrolysis was evaluated after 12 hours of incubation and the results were compared against a control that is performed and only differs from the test solutions by the absence of enzyme.

eggshell membrane [4] = assay: Hydrolyzation of different amounts of eggshell membrane with 0.1% papain (Example 3); conditions: papain 0.1%, 12 h, 100 mM Na2S2O5, SDS, pH 6.2, 38° C.
Description: Specifically, different solutions with different amounts of eggshell membrane were prepared such that final concentrations with respect to the total solution volume of 20, 30, 40, 50, 70, 100, and 150 mg of eggshell membrane/ml of solution were obtained. The solution contained 100 mM sodium metabisulfite (Na2S2O5), 0.5-5% SDS in 50 mM HEPES buffer adjusted to pH 6.2 with a pH-meter. 1% papain previously activated in a 0.15 M sodium chloride solution was then added such that the concentration of the enzyme with respect to the final volume of the mixture was 0.05-0.5%. Once all the components were mixed and homogenized, said mixture was incubated at 38° C. for 12 h and the results were compared against a control that is performed and only differs from the test solutions by the absence of enzyme. A clear, amber-colored solution was obtained, the color of which intensifies as the membrane concentration increases, in addition to the presence of a precipitate increasing, which indicates a lower level of hydrolysis.

[5] = SDS + Na2S2O4, 24 h, pH optimum of each enzyme
[6] = SDS + Na2SO3, 24 h, pH optimum of each enzyme
[7] = SDS + DTT, 24 h, pH optimum of each enzyme
[8] = SDS + HOCH2SO2Na, 24 h, pH optimum of each enzyme
[9] = SDS + Na2S2O5, 24 h, pH optimum of each enzyme

Molecule	dissolution results with the denaturing agent (eggshell membrane [1])	% solubilized (eggshell membrane [2]; SDS + DTT, 1 h, pH 6.2)	% solubilized (eggshell membrane [2]; SDS + HOCH2SO2Na, 12 h, pH 6.2)	% solubilized (eggshell membrane [2]; [5])	% solubilized (eggshell membrane [2]; SDS + Na2S2O5, 1 h, pH 6.2)	% solubilized (eggshell membrane [2]; [6])	% solubilized (eggshell membrane [2]; [7])	% solubilized (eggshell membrane [2]; [8])	% solubilized (eggshell membrane [2]; [9])	other results
CCCCCCCCCCCCOS(=O)(=O)[O-].[Na+] [SDS, sodium lauryl sulfate]	excellent results	–	–	–	–	–	–	–	–	–
NC(N)=O [urea]	without obtaining satisfactory dissolution results	–	–	–	–	–	–	–	–	–
Bromelain	–	100%	100%	0%	100%	0%	–	–	–	–
Ficin	–	–	–	0%	–	0%	50%	0%	50%	–
Pepsin	–	–	–	0%	–	0%	0%	0%	0%	–
B1	–	100%	100%	0%	100%	0%	–	–	–	% solubilized (eggshell membrane [3]; (1) Na2S2O5 100 mM, no SDS): 0%; % solubilized (eggshell membrane [3]; (2) SDS + Na2S2O5 5 mM, pH 6.2): 0%; % solubilized (eggshell membrane [3]; (3) SDS + Na2S2O5 50 mM, pH 6.2): 70%; % solubilized (eggshell membrane [3]; (4) SDS + Na2S2O5 100 mM, pH 6.2): 100%; % of hydrolyzation (eggshell membrane [4]; membrane 20 mg/ml): 100%; % of hydrolyzation (eggshell membrane [4]; membrane 30 mg/ml): 100%; % of hydrolyzation (eggshell membrane [4]; membrane 50 mg/ml): 100%; % of hydrolyzation (eggshell membrane [4]; membrane 70 mg/ml): 100%; % of hydrolyzation (eggshell membrane [4]; membrane 100 mg/ml): 90%; % of hydrolyzation (eggshell membrane [4]; membrane 150 mg/ml): 80%
